{"source": "patent US11638700B2", "about": "“Iron/shikonin nano-composite and use thereof and method for preparing the same by supermolecular self-assembly” (Jilin University, priority 2020, dated 2023)", "origin": "cited, not measured here", "conditions": "generally considered"}
{"smiles": "CC(C)=CC[C@@H](O)C1=CC(=O)c2c(O)ccc(O)c2C1=O", "note": "[shikonin]", "values": [{"measurement": "solubility of shikonin in water", "result": "insoluble in water"}]}
